Source: patent US10213415B2, “Compounds as opioid receptor modulators” (JANSSEN PHARMACEUTICA NV, priority 2004, dated 2019)

Legend:
mu opioid receptor = target: T1, mu opioid receptor (Rattus norvegicus, UniProt P33535); test: Rat Brain Mu Opioid Receptor Binding Assay (and Version 2a, [3H]DAMGO); details: rat forebrain membranes, margin of error 10-20%, read-out: r Ki μ
T1 construct: from tissue; host or cells: forebrain of male Wistar rats
Description: Male, Wistar rats (150-250 g, VAF, Charles River, Kingston, N.Y.) are killed by cervical dislocation, and their brains removed and placed immediately in ice cold Tris HCl buffer (50 mM, pH 7.4). The forebrains are separated from the remainder of the brain by a coronal transection, beginning dorsally at the colliculi and passing ventrally through the midbrain-pontine junction. After dissection, the forebrains are homogenized in Tris buffer in a Teflon® glass homogenizer. The homogenate is diluted to a concentration of 1 g of forebrain tissue per 80 mL Tris and centrifuged at 39,000×g for 10 min. The pellet is resuspended in the same volume of Tris buffer containing 5 mM MgCl2 with several brief pulses from a Polytron homogenizer. This particulate preparation is used for the mu-opioid binding assays. […] The filters are rinsed three times with 2 mL of 10 mM HEPES (pH7.4), and dried in a microwave oven 2 min twice. To each sample area 2×50 μL of Betaplate Scint scintillation fluid (LKB) is added and analyzed on a LKB (Wallac) 1205 BetaPlate liquid scintillation counter.
(§1) The data are used to calculate either the % inhibition compared to control binding (when only a single concentration of test compound is evaluated) or a Ki value (when a range of concentrations is tested). % inhibition is calculated as: [(total dpm-test compound dpm)/(total dpm-nonspecific dpm)]*100. Kd and Ki values were calculated using GraphPad PRISM data analysis program.
Male, Wistar rats (150-250 g, VAF, Charles River, Kingston, N.Y.) were killed by cervical dislocation, and their brains removed and placed immediately in ice-cold Tris HCl buffer (50 mM, pH 7.4). The forebrains were separated from the remainder of the brain by a coronal transection, beginning dorsally at the colliculi and passing ventrally through the midbrain-pontine junction. After dissection, the forebrains were homogenized in Tris buffer in a Teflon®-glass homogenizer. The homogenate was diluted to a concentration of 1 g of forebrain tissue per 80 mL Tris and centrifuged at 39,000×g for 10 min. The pellet was resuspended in the same volume of Tris buffer containing 5 mM MgCl2 with several brief pulses from a Polytron homogenizer. This particulate preparation was used for the mu opioid binding assay. Following incubation with 0.8 nM of the mu selective ligand [^3H]DAMGO at 25° C. for 2.5 h in a 96-well plate with total 1 mL, the plate contents were filtered through Wallac filtermat B sheets on a Tomtec 96-well harvester. The filters were rinsed three times with 2 mL of 10 mM HEPES (pH 7.4), and dried in a microwave oven. To each sample area, Betaplate Scint scintillation fluid (LKB) was added and the resulting radioactivity quantified on a LKB (Wallac) 1205 BetaPlate liquid scintillation counter. Kd and Ki values were calculated using the GraphPad PRISM data analysis program.

delta opioid receptor = target: T2, delta opioid receptor (Rattus norvegicus, UniProt P33533); test: Rat Brain Delta Opioid Receptor Binding Assay ([3H]DPDPE); details: rat forebrain membranes, margin of error 10-20%, read-out: r Ki δ
T2 construct: from tissue; host or cells: forebrain of male Wistar rats
Description: Male, Wistar rats (150-250 g, VAF, Charles River, Kingston, N.Y.) are killed by cervical dislocation, and their brains removed and placed immediately in ice cold Tris HCl buffer (50 mM, pH 7.4). The forebrains are separated from the remainder of the brain by a coronal transection, beginning dorsally at the colliculi and passing ventrally through the midbrain-pontine junction. After dissection, the forebrains are homogenized in Tris buffer in a Teflon® glass homogenizer. The homogenate is diluted to a concentration of 1 g of forebrain tissue per 80 mL Tris and centrifuged at 39,000×g for 10 min. The pellet is resuspended in the same volume of Tris buffer containing 5 mM MgCl2 with several brief pulses from a Polytron homogenizer. This particulate preparation is used for the delta opioid binding assays. Following incubation with the delta selective peptide ligand ˜4 nM [^3H]DPDPE at 25° C. for 2.5 h in a 96-well plate with total volume of 1 mL, the plate contents are filtered through Wallac filtermat B sheets on a Tomtec 96-well harvester. The filters are rinsed three times with 2 mL of 10 mM HEPES (pH 7.4), and dried in a microwave oven 2 min twice. To each sample area 2×50 μL of Betaplate Scint scintillation fluid (LKB) is added and analyzed on a LKB (Wallac) 1205 BetaPlate liquid scintillation counter.
as §1, with “dpm−test” for “dpm-test”, “dpm−nonspecific” for “dpm-nonspecific”

[1] = target: T3, mu opioid receptor (CHO-hMOR cell membranes) (Homo sapiens, UniProt P35372); test: Mu Opioid Receptor Functional Assay: [35S]GTPγS Binding in CHO-hMOR Cell Membranes, Versions 1 and 2; assay type: biochemical; details: for MOR GTP binding assay_v1 (% I): version 1, % inhibition of agonist-stimulated GTPγS binding; for MOR GTP assay_v1 % of Basal: version 1, basal binding = 100%
T3 construct: purchased Receptor Biology, Inc. (Baltimore, Md.); host or cells: CHO cells (recombinant expression)
Description: CHO-hMOR cell membranes were purchased from Receptor Biology, Inc. (Baltimore, Md.). About 10 mg/ml of membrane protein was suspended in 10 mM TRIS-HCl pH 7.2, 2 mM EDTA, 10% sucrose, and the suspension kept on ice. One ml of membranes was added to 15 ml cold binding assay buffer containing 50 mM HEPES, pH 7.6, 5 mM MgCl2, 100 mM NaCl, 1 mM DTT and 1 mM EDTA. The membrane suspension was homogenized with a Polytron and centrifuged at 3,000 rpm for 10 min. The supernatant was then centrifuged at 18,000 rpm for 20 min. The pellet was resuspended in 10 ml assay buffer with a Polytron.
The membranes were preincubated with wheat germ agglutinin coated SPA beads (Amersham) at 25° C. for 45 min in the assay buffer. The SPA bead (5 mg/ml) coupled membranes (10 μg/ml) were then incubated with 0.5 nM [^35S]GTPγS in the assay buffer. […] A range of concentrations of receptor agonists was used to stimulate [^35S]GTPγS binding. Both basal and non-specific binding was tested in the absence of agonist; non-specific binding determination included 10 μM unlabeled GTPγS.
Compounds were tested for function as antagonists by evaluating their potential to inhibit agonist-stimulated GTPγS binding. Radioactivity was quantified on a Packard TopCount. The following parameters were calculated:
[formula] % Inhibition=(% stimulation by 1 μM SNC80−% stimulation by 1 μM SNC80 in presence of test compound)×100/(% Stimulation by 1 μM SNC80−100)
EC50 values were calculated using GraphPad Prism.

human mu opioid receptor = target: T4, human mu opioid receptor (Homo sapiens, UniProt P35372); test: Human Mu Opioid Receptor Binding Assay (CHO membranes, 3H-Damgo); details: read-out: hKi μ
T4 construct: purchased Perkin Elmer RBHOMM400UA; host or cells: Chinese Hamster Ovary cells (recombinant expression)
Outline: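 Radioligand displacement of ³H-Damgo (diluted to 3.6 nM pre-mix) from recombinant human mu receptor in CHO membranes, 2 h, room temperature, 50 mM Tris pH 7.5 with 5 mM MgCl2. Bound label read by filtration and scintillation counting; 1 μM unlabelled Damgo defines nonspecific binding.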

T1 sequence (P33535 whole entry): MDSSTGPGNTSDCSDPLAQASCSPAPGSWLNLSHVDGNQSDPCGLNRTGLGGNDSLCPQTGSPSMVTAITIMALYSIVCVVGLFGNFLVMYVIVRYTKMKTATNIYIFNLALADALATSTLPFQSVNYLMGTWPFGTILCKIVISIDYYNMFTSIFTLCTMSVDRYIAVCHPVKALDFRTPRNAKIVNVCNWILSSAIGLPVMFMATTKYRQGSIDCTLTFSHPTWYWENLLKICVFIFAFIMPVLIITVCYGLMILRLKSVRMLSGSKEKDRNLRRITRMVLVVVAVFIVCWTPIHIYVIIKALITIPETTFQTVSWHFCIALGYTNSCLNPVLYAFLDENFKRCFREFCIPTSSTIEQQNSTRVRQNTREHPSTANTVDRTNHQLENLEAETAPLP
T2 sequence (P33533 whole entry): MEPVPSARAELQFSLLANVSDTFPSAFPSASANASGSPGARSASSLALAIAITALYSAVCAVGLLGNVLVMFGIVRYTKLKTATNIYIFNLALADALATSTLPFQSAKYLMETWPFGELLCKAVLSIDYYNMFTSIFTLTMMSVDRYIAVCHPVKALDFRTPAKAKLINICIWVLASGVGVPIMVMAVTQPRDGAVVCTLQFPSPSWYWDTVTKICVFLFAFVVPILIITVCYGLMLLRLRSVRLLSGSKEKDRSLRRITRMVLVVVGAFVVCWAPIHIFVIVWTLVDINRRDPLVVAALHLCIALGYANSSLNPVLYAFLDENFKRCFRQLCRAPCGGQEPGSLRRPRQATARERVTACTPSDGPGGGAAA
T4 sequence (P35372 whole entry): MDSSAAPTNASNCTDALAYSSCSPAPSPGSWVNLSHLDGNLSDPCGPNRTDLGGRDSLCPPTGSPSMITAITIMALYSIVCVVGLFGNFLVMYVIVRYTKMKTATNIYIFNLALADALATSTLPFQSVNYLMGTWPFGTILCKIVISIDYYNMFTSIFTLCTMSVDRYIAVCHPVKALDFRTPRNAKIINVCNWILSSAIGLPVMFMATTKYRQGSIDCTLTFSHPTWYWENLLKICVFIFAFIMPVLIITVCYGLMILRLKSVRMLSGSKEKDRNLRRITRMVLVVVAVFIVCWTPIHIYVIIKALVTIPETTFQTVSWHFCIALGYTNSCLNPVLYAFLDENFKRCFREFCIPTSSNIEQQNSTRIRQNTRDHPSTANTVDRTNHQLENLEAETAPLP
T3 sequence (P35372 whole entry): as above

SMILES	Ki (mu opioid receptor)	Ki (delta opioid receptor)	MOR GTP binding assay_v1 (% I) [1]	MOR GTP assay_v1 % of Basal [1]	Ki (human mu opioid receptor)
Cc1cc(O)cc(C)c1C[C@H](N)C(=O)N[C@@H](COCc1ccccc1)c1nc(-c2ccccc2)c[nH]1 [Cpd 175]	3.6 nM	166 nM	53.00%	471.00%	
C[C@H](c1nc(-c2ccccc2)c[nH]1)N(C)C(=O)[C@@H](N)Cc1ccc(O)cc1 [Cpd 210]	420 nM	1860 nM	10.00%	414.00%	0.29 nM
C[C@@H](c1nc(-c2ccccc2)c[nH]1)N(C)C(=O)[C@@H](N)Cc1ccc(O)cc1 [Cpd 211]	5.9 nM	180 nM	10.00%	371.00%	
CCNC(=O)c1cc(C)c(C[C@H](N)C(=O)N(C)[C@@H](C)c2nc(-c3ccccc3)c[nH]2)c(C)c1 [Cpd 181]	1.3 nM	341 nM	1.00%		
Cc1cc(O)cc(C)c1C[C@H](N)C(=O)N[C@@H](Cc1cccc(C#N)c1)c1nc(-c2ccccc2)c[nH]1 [Cpd 173]	45.7 nM	5070 nM	85.00%	147.00%	
Cc1cc(O)cc(C)c1C[C@H](N)C(=O)N[C@@H](Cc1ccccc1)c1nc(-c2ccccc2)c[nH]1 [Cpd 177]	13.4 nM	255 nM	23.00%	625.00%	
Cc1cc(O)cc(C)c1C[C@H](N)C(=O)N[C@@H](C)c1nc(-c2ccccc2)c[nH]1 [Cpd 209]	17 nM	708 nM	10.00%	295.00%	23 nM
CCNC(=O)c1cc(C)c(C[C@H](N)C(=O)N(C)[C@H](C)c2nc(-c3ccccc3)c[nH]2)c(C)c1 [Cpd 182]	7 nM	1860 nM	6.00%		
Cc1cc(O)cc(C)c1C[C@H](N)C(=O)N[C@H](C)c1nc(-c2ccccc2)c[nH]1 [Cpd 208]	1.3 nM	33 nM	1.00%	475.00%	1.2 nM
CC(C)N(C(=O)[C@@H](N)Cc1ccc(O)cc1)[C@H](C)c1nc(-c2ccccc2)c[nH]1 [Cpd 222]	91.2 nM	394 nM			185 nM
C[C@H](NC(=O)[C@@H](N)Cc1ccc(O)cc1)c1nc(-c2ccccc2)c[nH]1 [Cpd 213]	1260 nM	5660 nM			> 1000 nM
CN[C@@H](Cc1ccc(O)cc1)C(=O)N(Cc1ccc(OC)c(C(=O)O)c1)[C@@H](C)c1nc(-c2ccccc2)c[nH]1 [Cpd 262]	1.1 nM	17.5 nM			3.24 nM
